Measurements: patent publication US6737383B1, “Herbicidal oxadiazolidines” (priority 1999, dated 2004)

How the values were obtained:
wild oat = assay: Test B pre/postemergence wild oat; assay type: in vivo, Avena fatua
How it was run: (§1)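 Test chemicals in a non-phytotoxic solvent mixture with surfactant were sprayed preemergence onto planted seeds and postemergence onto plants 2 to 18 cm tall (1- to 4-leaf stage). After twelve to sixteen days in a greenhouse, injury was visually rated against untreated controls from 0 (no effect) to 10 (complete control).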

blackgrass = assay: Test B pre/postemergence blackgrass; assay type: in vivo, Alopecurus myosuroides
How it was run: as §1

purple nutsedge = assay: Test B pre/postemergence purple nutsedge; assay type: in vivo, Cyperus rotundus
How it was run: as §1

corn = assay: Test B pre/postemergence corn; assay type: in vivo, Zea mays
How it was run: as §1

crabgrass = assay: Test B pre/postemergence crabgrass; assay type: in vivo, Digitaria sanguinalis
How it was run: as §1

morningglory = assay: Test B pre/postemergence morningglory; assay type: in vivo, Ipomoea hederacea
How it was run: as §1

rice = assay: Test B flood test rice; assay type: in vivo, Oryza sativa
How it was run: (§2)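 Plants were grown to the 2-leaf stage before treatment with test chemical, then held in a greenhouse for twelve to sixteen days. Injury was visually rated against untreated controls on a 0–10 scale, where 0 is no effect and 10 is complete control.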

surinam grass = assay: Test B pre/postemergence surinam grass; assay type: in vivo, Brachiaria decumbens
How it was run: as §1

bedstraw = assay: Test B pre/postemergence bedstraw; assay type: in vivo, Galium aparine
How it was run: as §1

duck salad = assay: Test B flood test duck salad; assay type: in vivo, Heteranthera limosa
How it was run: as §2

wheat = assay: Test B pre/postemergence wheat; assay type: in vivo, Triticum aestivum
How it was run: as §1

giant foxtail = assay: Test B pre/postemergence giant foxtail; assay type: in vivo, Setaria faberii
How it was run: as §1

pigweed = assay: Test B pre/postemergence pigweed; assay type: in vivo, Amaranthus retroflexus
How it was run: as §1

rape = assay: Test B pre/postemergence rape; assay type: in vivo, Brassica napus
How it was run: as §1

soybean = assay: Test B pre/postemergence soybean; assay type: in vivo, Glycine max
How it was run: as §1

velvetleaf = assay: Test B pre/postemergence velvetleaf; assay type: in vivo, Abutilon theophrasti
How it was run: as §1

[1] = Preemergence, Rate 62 g/ha, scale of 0 to 10 where 0 is no effect and 10 is complete control
[2] = Preemergence, Rate 250 g/ha, scale of 0 to 10 where 0 is no effect and 10 is complete control
[3] = Preemergence, Rate 500 g/ha, scale of 0 to 10 where 0 is no effect and 10 is complete control
[4] = Rate 62 g/ha, Postemergence, scale 0 to 10 (0 no effect, 10 complete control)
[5] = Rate 125 g/ha, Postemergence, scale of 0 to 10 where 0 is no effect and 10 is complete control
[6] = Rate 250 g/ha, Postemergence, scale of 0 to 10 where 0 is no effect and 10 is complete control
[7] = Rate 500 g/ha, Postemergence, scale 0 to 10, 0 no effect, 10 complete control
[8] = Rate 125 g/ha, Preemergence, scale of 0 to 10 where 0 is no effect and 10 is complete control
[9] = Rate 62 g/ha, headed Pre-emergence (flood test species), scale 0 to 10 (0 no effect, 10 complete control)
[10] = Rate 125 g/ha, Pre-emergence, flood test species, scale 0 to 10 where 0 is no effect and 10 is complete control
[11] = Rate 250 g/ha, Pre-emergence, flood-test species, scale 0 to 10, 0 is no effect, 10 is complete control
[12] = Rate 500 g/ha, Pre-emergence, flood test species, scale 0 to 10 (0 no effect, 10 complete control)

## Cc1ccccc1-n1c(=O)on(C(=O)N(c2ccc3c(c2)CCC3)C(C)C)c1=O [Compound 278]
Wild oat; [1]
  Wild oats plant response rating: 0
Wild oat; [2]
  Wild oats plant response rating: 0
Wild oat; [3]
  Plant response rating, Wild oats: 0
Wild oat; [4]
  Wild oats plant response rating: 0
Wild oat; [5]
  Wild oats plant response rating: 0
Wild oat; [6]
  Plant response rating, Wild oats: 0
Wild oat; [7]
  Wild oats plant response rating: 0
blackgrass; [1]
  Blackgrass plant response rating: 0
blackgrass; [2]
  Blackgrass plant response rating: 0
blackgrass; [3]
  Plant response rating, Blackgrass: 0
blackgrass; [4]
  Blackgrass plant response rating: 0
blackgrass; [5]
  Blackgrass plant response rating: 0
blackgrass; [8]
  Blackgrass plant response rating: 0
blackgrass; [6]
  Plant response rating, Blackgrass: 0
blackgrass; [7]
  Blackgrass plant response rating: 0
Purple nutsedge; [2]
  Nutsedge plant response rating: 0
Purple nutsedge; [4]
  Nutsedge plant response rating: 0
Purple nutsedge; [5]
  Nutsedge plant response rating: 0
Purple nutsedge; [8]
  Nutsedge plant response rating: 0
Purple nutsedge; [6]
  Plant response rating, Nutsedge: 0
Purple nutsedge; [7]
  Nutsedge plant response rating: 0
corn; [1]
  Corn plant response rating: 0
corn; [2]
  Corn plant response rating: 0
corn; [3]
  Plant response rating, Corn: 0
corn; [4]
  Corn plant response rating: 0
corn; [5]
  Corn plant response rating: 0
corn; [8]
  Corn plant response rating: 0
corn; [6]
  Plant response rating, Corn: 0
corn; [7]
  Corn plant response rating: 0
crabgrass; [1]
  Crabgrass plant response rating: 0
crabgrass; [2]
  Crabgrass plant response rating: 2
crabgrass; [3]
  Plant response rating, Crabgrass: 4
crabgrass; [4]
  Crabgrass plant response rating: 0
crabgrass; [5]
  Crabgrass plant response rating: 0
crabgrass; [8]
  Crabgrass plant response rating: 1
crabgrass; [6]
  Plant response rating, Crabgrass: 0
crabgrass; [7]
  Crabgrass plant response rating: 0
morningglory; [1]
  Morningglory plant response rating: 0
morningglory; [2]
  Morningglory plant response rating: 0
morningglory; [3]
  Plant response rating, Morningglory: 0
morningglory; [4]
  Morningglory plant response rating: 3
morningglory; [5]
  Morningglory plant response rating: 3
morningglory; [8]
  Morningglory plant response rating: 0
morningglory; [6]
  Plant response rating, Morningglory: 4
morningglory; [7]
  Morningglory plant response rating: 4
rice; [9]
  Rice plant response rating: 0
rice; [10]
  Rice plant response rating: 0
rice; [11]
  Rice plant response rating: 0
rice; [12]
  Rice plant response rating: 0
Surinam grass; [1]
  B. signalgrass plant response rating: 0
Surinam grass; [2]
  B. signalgrass plant response rating: 0
Surinam grass; [3]
  Plant response rating, B. signalgrass: 0
Surinam grass; [4]
  B. signalgrass plant response rating: 0
Surinam grass; [5]
  B. signalgrass plant response rating: 0
Surinam grass; [8]
  B. signalgrass plant response rating: 0
Surinam grass; [6]
  Plant response rating, B. signalgrass: 0
Surinam grass; [7]
  B. signalgrass plant response rating: 0
bedstraw; [2]
  Bedstraw plant response rating: 0
bedstraw; [3]
  Plant response rating, Bedstraw: 0
bedstraw; [4]
  Bedstraw plant response rating: 0
bedstraw; [5]
  Bedstraw plant response rating: 0
bedstraw; [8]
  Bedstraw plant response rating: 0
bedstraw; [6]
  Plant response rating, Bedstraw: 6
bedstraw; [7]
  Bedstraw plant response rating: 8
Duck salad; [9]
  Ducksalad plant response rating: 0
Duck salad; [10]
  Ducksalad plant response rating: 0
Duck salad; [11]
  Ducksalad plant response rating: 0
Duck salad; [12]
  Ducksalad plant response rating: 0
wheat; [1]
  Wheat plant response rating: 0
wheat; [2]
  Wheat plant response rating: 0
wheat; [3]
  Plant response rating, Wheat: 0
wheat; [4]
  Wheat plant response rating: 0
wheat; [5]
  Wheat plant response rating: 0
wheat; [8]
  Wheat plant response rating: 0
wheat; [6]
  Plant response rating, Wheat: 0
wheat; [7]
  Wheat plant response rating: 0
Giant foxtail; [1]
  Giant foxtail plant response rating: 0
Giant foxtail; [2]
  Giant foxtail plant response rating: 2
Giant foxtail; [3]
  Plant response rating, Giant foxtail: 8
Giant foxtail; [4]
  Giant foxtail plant response rating: 0
Giant foxtail; [5]
  Giant foxtail plant response rating: 0
Giant foxtail; [8]
  Giant foxtail plant response rating: 2
Giant foxtail; [6]
  Plant response rating, Giant foxtail: 0
Giant foxtail; [7]
  Giant foxtail plant response rating: 0
pigweed; [1]
  Redroot pigweed plant response rating: 0
pigweed; [2]
  Redroot pigweed plant response rating: 0
pigweed; [3]
  Plant response rating, Redroot pigweed: 0
pigweed; [4]
  Redroot pigweed plant response rating: 0
pigweed; [5]
  Redroot pigweed plant response rating: 0
pigweed; [8]
  Redroot pigweed plant response rating: 0
pigweed; [6]
  Plant response rating, Redroot pigweed: 0
pigweed; [7]
  Redroot pigweed plant response rating: 4
rape; [1]
  Rape plant response rating: 0
rape; [2]
  Rape plant response rating: 0
rape; [3]
  Plant response rating, Rape: 0
rape; [4]
  Rape plant response rating: 0
rape; [5]
  Rape plant response rating: 0
rape; [8]
  Rape plant response rating: 0
rape; [6]
  Plant response rating, Rape: 0
rape; [7]
  Rape plant response rating: 0
soybean; [1]
  Soybean plant response rating: 0
soybean; [2]
  Soybean plant response rating: 0
soybean; [3]
  Plant response rating, Soybean: 0
soybean; [4]
  Soybean plant response rating: 1
soybean; [5]
  Soybean plant response rating: 1
soybean; [8]
  Soybean plant response rating: 0
soybean; [6]
  Plant response rating, Soybean: 1
soybean; [7]
  Soybean plant response rating: 1
velvetleaf; [1]
  Velvetleaf plant response rating: 0
velvetleaf; [2]
  Velvetleaf plant response rating: 0
velvetleaf; [3]
  Plant response rating, Velvetleaf: 0
velvetleaf; [4]
  Velvetleaf plant response rating: 0
velvetleaf; [5]
  Velvetleaf plant response rating: 0
velvetleaf; [8]
  Velvetleaf plant response rating: 0
velvetleaf; [6]
  Plant response rating, Velvetleaf: 0
velvetleaf; [7]
  Velvetleaf plant response rating: 2
